Here are results for one compound from patent US6716831B1, “2,4-diamino-pyrimidine deprivatives having anti-cell proliferative activity” (AstraZeneca AB, priority 1999, dated 2004).

This assay has as its target T1, human Focal Adhesion Kinase (FAK) (Homo sapiens, UniProt Q05397).
T1 construct: FAK (full length human cDNA described by Andre et al); 6-histidine tag (N); made in house; host or cells: Sf21 insect cells (baculovirus, pFastbac 1)
Nature of the assay: FAK3 Kinase Inhibition Assay. It counts as biochemical. Particulars: in vitro enzyme assay, Poly (Glu, Ala, Tyr) substrate; read-out: FAK inhibitory activity IC50. From the text: FAK3 Kinase Inhibition Assay
This assay determines the ability of a test compound to inhibit tyrosine kinase activity of human Focal Adhesion Kinase (FAK).
DNA encoding FAK is obtained by total gene synthesis (Edwards M, International Biotechnology Lab 5(3), 19-25, 1987) or by cloning. These are then expressed in a suitable expression system to obtain polypeptide with tyrosine kinase activity.
Active FAK protein has been previously expressed in a baculovirus system using a similar N-terminal 6-histidine tag (Protein Expression And Purification, 1996, 7: 12-18). The human FAK cDNA was cloned into the baculovirus transplacement vector, pFastbac 1 (Life Technologies), and the recombinant construct was co-transfected into insect cells (for example Spodoptera frugiperda 21(Sf21)) with viral DNA to prepare recombinant baculovirus (details of the methods for the assembly of recombinant DNA molecules and the preparation and use of recombinant baculovirus can be found in standard texts for example Sambrook et al, 1989, Molecular cloning—A Laboratory Manual, 2nd edition, Cold Spring Harbour Laboratory Press and O'Reilly et al, 1992, Baculovirus Expression Vectors—A Laboratory Manual, W.H. Freeman and Co, New York. Details specific to the use of the pFastbac (‘Bac to Bac’) system are provided in Anderson et al., 1995, FOCUS (Life Technologies Bulletin Magazine), 17, p53.) […]

T1 sequence (Q05397 whole entry): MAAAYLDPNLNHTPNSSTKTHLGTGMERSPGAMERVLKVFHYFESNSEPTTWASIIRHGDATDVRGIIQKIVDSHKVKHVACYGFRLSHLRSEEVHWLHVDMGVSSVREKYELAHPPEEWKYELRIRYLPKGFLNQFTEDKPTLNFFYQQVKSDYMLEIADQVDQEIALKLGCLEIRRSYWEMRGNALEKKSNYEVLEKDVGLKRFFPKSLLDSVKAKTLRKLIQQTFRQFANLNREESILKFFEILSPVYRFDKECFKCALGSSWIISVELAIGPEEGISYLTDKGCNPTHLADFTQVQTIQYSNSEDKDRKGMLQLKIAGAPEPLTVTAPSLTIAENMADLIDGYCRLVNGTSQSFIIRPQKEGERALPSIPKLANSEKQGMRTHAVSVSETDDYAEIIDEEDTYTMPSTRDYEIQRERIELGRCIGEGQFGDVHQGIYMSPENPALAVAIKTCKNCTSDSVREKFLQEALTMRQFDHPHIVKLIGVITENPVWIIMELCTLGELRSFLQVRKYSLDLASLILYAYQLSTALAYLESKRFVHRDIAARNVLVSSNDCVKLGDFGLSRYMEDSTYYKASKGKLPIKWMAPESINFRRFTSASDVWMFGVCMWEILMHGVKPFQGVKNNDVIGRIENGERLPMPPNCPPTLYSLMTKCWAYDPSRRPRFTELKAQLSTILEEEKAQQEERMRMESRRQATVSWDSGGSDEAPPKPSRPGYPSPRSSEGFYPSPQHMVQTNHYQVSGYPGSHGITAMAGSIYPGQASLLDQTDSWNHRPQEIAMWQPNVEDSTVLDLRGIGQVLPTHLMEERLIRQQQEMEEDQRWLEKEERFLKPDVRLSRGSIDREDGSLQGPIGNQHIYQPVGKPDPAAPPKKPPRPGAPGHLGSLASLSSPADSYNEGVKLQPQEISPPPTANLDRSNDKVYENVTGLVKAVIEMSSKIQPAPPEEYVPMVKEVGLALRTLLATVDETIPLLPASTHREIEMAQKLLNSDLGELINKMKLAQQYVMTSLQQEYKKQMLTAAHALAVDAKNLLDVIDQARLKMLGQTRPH

With `CN(C)CC(O)COc1ccc(Nc2nccc(N3CCc4cc(Br)ccc43)n2)cc1` (stereo not shown) [Example 3], the IC50 (commonly the midpoint of a concentration-inhibition curve) is 553 nM.
